PMC5344518, “Anti-trypanosomal activity of non-peptidic nitrile-based cysteine protease inhibitors” (PLoS Neglected Tropical Diseases, 2017)
Read-outs that look alike come from different tables or passages of the source. Marks after values point to notes of the source that are not given here.

Legend:
[1] = tested on: LLC-MK2 cells; assay: Cytotoxicity in LLC-MK2 cells; type: cell-based, monkey; details: % cytotoxicity in LLC-MK2 cells at 128 μM; standard deviation (N = 6) in parentheses
Text: Table 2 Anti-trypanosomal activity of cysteine protease inhibitors. | column: Cytotox LLC-MK2 ^c

[2] = tested on: amastigote forms of T. cruzi CL Brener strain; assay: Anti-trypanosomal activity assay (beta-galactosidase reporter, infected LLC-MK2 cells); type: cell-based; details: Trypanosoma cruzi
Experimental: Assays were performed against amastigote forms of T. cruzi CL Brener strain, which expresses β-galactosidase derived from Escherichia coli, infecting monkey kidney (LLC-MK2) cells as described. Previously, LLC-MK2 host cells were cultivated in 96-wells microplates (10^3 cells/well). […] Then, the wells were washed with PBS to remove the extracellular parasites and the tested compounds were added in the final concentrations of 0.031, 0.125, 0.5, 2.0, 8.0, 32.0, 128 and 512 μM. After this, the microplates were incubated at 37°C, in CO2 atmosphere (5%), for 5 days. Then, 10 μL of FluoReporter lacZ/Galactosidase Quantitation Kit (Molecular Probes, ThermoFisher Scientific) were added and after 30 minutes the fluorometric reaction was read in a microplate reader (Synergy H1, Biotek) at 386 nm excitation and 448 nm emission. The metabolism of the substrate is directly correlated with the amount of β-galactosidase activity and, therefore, the number amastigotes. The percentage of activity for each compound was determined from the following formula: %activity = 100 –{[(X-PC)/(NC-PC)]x100}, where the optical density values of the samples (X), the positive controls (PC) and negative controls (NC) were used. Culture medium alone was used as positive control (PC) and cells with medium and 0.6% DMSO (v/v) as negative control (NC). All assays were performed in triplicate with two independent experiments.

[3] = tested on: Balb/C 3T3 clone A31 cells; assay: MTT colorimetric cytotoxicity assay; type: cell-based, mouse; details: % cytotoxicity in Balb/C 3T3 clone A31 cells at 128 μM; standard deviation (N = 8) in parentheses
Experimental: Inhibition values were determined in the cell-based assay as previously described. […] Cells were plated at a concentration of 10^5 cell/mL in 96-well plates and incubated for 24 h. […] The cell viability was assessed during 24, 48 and 72 h using the MTT (Sigma-Aldrich) reagent, with an incubation time of 3 h. Formazan crystals were dissolved using a solubility reagent composed of DMSO, glacial acetic acid and […] for 1 h. The readout was obtained using Biotek Synergy HT plate reader at 570 nm. Benznidazole was used as control. This assay was done in quadruplicate in two independent experiments. Statistical analyses were made in GraphPad Prism 5. Concentration-response curves were fitted for the best compounds and the statistical parameters are provided with the graphs in S9 Fig in the supplemental material.

[4] = target: T1, Recombinant cruzain (Trypanosoma cruzi, UniProt P25779); assay: Enzyme kinetic assay for cruzain (Z-FR-AMC hydrolysis); type: biochemical; details: pKi = -log10(Ki/M); uncertainty in parentheses; 37°C, pH 5.5
T1 construct: consisting of the catalytic domain of cruzipain but excluding the carboxy-terminal extension; made in house
Experimental: Recombinant cruzain, consisting of the catalytic domain of cruzipain but excluding the carboxy-terminal extension, was expressed and purified as previously described. Enzyme kinetic assays for cruzain were carried out at 37°C in 200 μL of a solution containing 100 mM acetate buffer pH 5.5, 300 mM NaCl, 5 mM dithiothreitol (DTT), 5% v/v dimethyl sulfoxide (DMSO), 0.01% v/v Triton X-100 and 0.15 nM cruzain, using Corning® 96-well black flat bottom microplates. (S)-N-(1-((cyanomethyl)amino)-1-oxo-3-phenylpropan-2-yl)benzamide was used as a positive control. The rate of the reaction was monitored using a Biotek Synergy HT plate reader through the fluorescence emission at 460 nm (excitation at 355 nm) due to the hydrolysis of the substrate Z-Phe-Arg-7-amido-4-methylcoumarin (Z-FR-AMC, Sigma-Aldrich). The enzyme stock aliquot was rapidly thawed at 37°C and kept on ice until activation, in which it was incubated for 20 min. in the assay buffer (100 mM acetate pH 5.5 and 5 mM DTT) followed by additional 2 min. incubation with inhibitors before the reaction was started by the addition of the substrate.
Visual inspection and a pre-reading of plate wells were performed to check for possible precipitation and background fluorescence, respectively. Fluorescence emission spectra were also recorded for all inhibitors, using the same excitation wavelength (355 nm) as for the fluorometric assay. […] The reaction was started by the addition of varying concentrations of the substrate and the wells monitored for a total of 5 minutes of reaction. The initial velocities of the substrate hydrolysis under first-order reaction were calculated by Gen5 Biotek software based on the linear-regression coefficient from the data fitting of Relative Fluorescence Unit (mRFU) as a function of time (min).
Each experiment was performed in duplicates for each compound being tested. A control measurement in absence of inhibitor (KM) was carried out for each setup plate and the kinetic affinity constants (Ki) were calculated from non-linear fit of Michaelis-Menten curves to the data of initial velocities as a function of eight different concentrations of the substrate Z-FR-AMC from 30.0–0.8 μM. All inhibitors were evaluated in two different concentrations, which were chosen based on a previous screening (percentage of inhibition) at 1.7 μM substrate (~KM). SigmaPlot (v. 10.0) was employed for the non-linear fit and the kinetic parameters determination.

[5] = tested on: Cathepsin K; details: pIC50 = -log10(IC50/M); cited from earlier work
[6] = tested on: Cathepsin S; details: pIC50 = -log10(IC50/M); cited from earlier work
[7] = tested on: Cathepsin B; details: pIC50 = -log10(IC50/M); cited from earlier work
[8] = target: T2, cathepsin L (Homo sapiens, UniProt P07711); details: pIC50 = -log10(IC50/M); cited from earlier work
[9] = target: T2, cathepsin L; assay: Enzyme kinetic assay for cathepsin L; type: biochemical; details: pKi = -log10(Ki/M); uncertainty in parentheses; 37°C, pH 5.5
Experimental: (§1) Enzyme kinetic assays for cathepsin L were performed in a similar manner to the cruzain assays at 37°C in 200 μL of a solution containing 100 mM acetate buffer pH 5.5, 300 mM NaCl, 1 mM dithiothreitol (DTT), 1 mM EDTA, 5% v/v dimethyl sulfoxide (DMSO), 0.01% v/v Triton X-100 and 0.30 nM cathepsin L, using Corning® 96-well black flat bottom microplates. Using the QFRET technology, compounds 9–12 were tested for inhibition of cathepsin L-mediated cleavage of a synthetic peptide Z-Phe-Arg-AMC (10 μM final concentration) using 0.1 nM [final] human Cat L (prepared in-house). […]

[10] = target: T3, human Cat L (Homo sapiens, UniProt P07711); assay: Cat L inhibition assay (QFRET, Z-Phe-Arg-AMC cleavage); type: biochemical; details: pIC50 = -log10(IC50/M); determined using the Cat L inhibition assay method of ref. 24; pH 6.4; read-out: Cathepsin L pIC50 (converted)
T3 construct: made in house
Experimental: as §1

[11] = 120 h, pEC50 = -log10(EC50/M), T. cruzi CL Brener amastigotes in LLC-MK2 cells, 5 days, read-out: pEC50 (anti-trypanosomal activity) (converted)
[12] = LLC-MK2, 0.125 μM, standard deviation (N = 6) in parentheses, read-out: %activity at 0.125 μM
[13] = LLC-MK2, 0.5 μM, standard deviation (N = 6) in parentheses, read-out: %activity at 0.5 μM
[14] = LLC-MK2, 2 μM, standard deviation (N = 6) in parentheses, read-out: %activity at 2 μM
[15] = LLC-MK2, 8 μM, standard deviation (N = 6) in parentheses, read-out: %activity at 8 μM
[16] = LLC-MK2, T. cruzi CL Brener strain, read-out: EC50 (anti-trypanosomal activity)

T2 sequence (P07711 114-333, species assumed): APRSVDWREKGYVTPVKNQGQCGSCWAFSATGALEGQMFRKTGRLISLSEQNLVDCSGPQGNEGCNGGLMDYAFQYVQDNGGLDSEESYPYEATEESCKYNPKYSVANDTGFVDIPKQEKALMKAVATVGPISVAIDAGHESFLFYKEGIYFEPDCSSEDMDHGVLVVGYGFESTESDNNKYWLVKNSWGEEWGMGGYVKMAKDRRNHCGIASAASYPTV
T3 sequence (P07711 114-333): as the sequence (P07711 114-333, species assumed) above
T1 sequence (P25779 123-337 limits assumed): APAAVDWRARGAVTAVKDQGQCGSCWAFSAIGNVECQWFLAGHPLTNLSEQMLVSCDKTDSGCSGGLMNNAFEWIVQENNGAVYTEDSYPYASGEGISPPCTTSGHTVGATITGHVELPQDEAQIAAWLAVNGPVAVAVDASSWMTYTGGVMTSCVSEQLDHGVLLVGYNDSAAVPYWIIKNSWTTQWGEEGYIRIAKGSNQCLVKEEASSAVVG

Row | SMILES | Cytotox LLC-MK2 [1] | EC50 [2, 11] | inhibition at 0.125 µM [2, 12] | inhibition at 0.5 µM [2, 13] | inhibition at 2 µM [2, 14] | inhibition at 8 µM [2, 15] | Cytotox Balb/C 3TC [3] | Ki [4] | Cathepsin K pIC50 [5] | Cathepsin S pIC50 [6] | Cathepsin B pIC50 [7] | Cathepsin L pIC50 [8] | Ki [9] | EC50 [2, 16] | IC50 [10] | inhibition at 0.125 µM ([2]; LLC-MK2, read-out: %activity at 0.125 μM) | inhibition at 0.5 µM ([2]; LLC-MK2, read-out: %activity at 0.5 μM) | inhibition at 2 µM ([2]; LLC-MK2, read-out: %activity at 2 μM) | inhibition at 8 µM ([2]; LLC-MK2, read-out: %activity at 8 μM)
1 | O=C(Cn1ccnc1[N+](=O)[O-])NCc1ccccc1 [Compound 1, benznidazole] | 41 (8) % | 2510 nM | 3% | 7% | 33% | 59% | 0 (0) % |  |  |  |  |  |  |  |  |  |  |  | 
2 | CC(C)(F)C[C@H](N[C@@H](c1ccc(-c2ccc(S(C)(=O)=O)cc2)cc1)C(F)(F)F)C(=O)NC1(C#N)CC1 [Compound 4, odanacatib] | 31 (4) % | 2510 nM | 22% | 28% | 36% | 44% | 27 (15) % | 126 nM | 9.7 ^d | 7.2 ^d | 6.0 ^d | 5.5 ^d | 6310 nM |  |  |  |  |  | 
3 | N#CC1(NC(=O)[C@H](Cc2ccccc2)N[C@H](c2ccccc2)C(F)(F)F)CC1 [Compound 5, (S)-N-(1-cyanocyclopropyl)-3-phenyl-2-(((R)-2,2,2-trifluoro-1-phenyl-ethyl)amino)propanamide] | 0 (0) % | 126 nM | 44% | 55% | 62% | 70% | 1 (7) % | 2510 nM |  |  |  |  | 794 nM | 120 nM |  |  |  |  | 
4 | N#CCNC(=O)[C@@H]1CCCC[C@H]1C(=O)N1CCCCC1 [Compound 7] | 4 (3) % |  | 0% | 2% | 9% | 12% | 2 (7) % | 7940 nM | 7.1 ^e | 5.7 ^e | 5.1 ^e | < 4 ^e |  |  |  |  |  |  | 
5 | N#CCNC(=O)[C@@H]1CCCC[C@H]1C(=O)N1CCN(c2ccccc2)CC1 [Compound 8] | 29 (8) % |  | 1% | 7% | 21% | 35% | 0 (0) % | 5010 nM | 8.1 ^e | 6.0 ^e | 6.3 ^e | < 4 ^e |  |  |  |  |  |  | 
6 | CS(=O)(=O)c1ccc(N2CCN(C(=O)[C@@H]3CCCC[C@H]3C(=O)NC3(C#N)CC3)CC2)cc1 [Compound 9] | 0 (0) % |  | 6% | 15% | 30% | 33% | 3 (7) % | 5010 nM | 7.7 ^g | 5.7 ^g | 5.6 ^g |  |  |  | > 10000 nM |  |  |  | 
7 | COc1ccc(N2CCN(C(=O)[C@@H]3CCCC[C@H]3C(=O)NC3(C#N)CC3)[C@H](C)C2)cc1OC [Compound 10] | 15(3) % |  |  |  |  |  | 0 (0) % | 1260 nM | 8.4 ^g | 5.8 ^g | 5.7 ^g |  |  |  | > 10000 nM | 6% | 22% | 26% | 28%
8 | COc1cc(N2CCN(C(=O)[C@@H]3CCCC[C@H]3C(=O)NC3(C#N)CC3)[C@H](C)C2)ccc1C1CC1 [Compound 11] | 36 (7) % | 251 nM | 33% | 62% | 76% | 83% | 0 (0) % | 2510 nM | 8.5 ^g | 5.9 ^g | 5.9 ^g |  |  | 250 nM | > 10000 nM |  |  |  | 
9 | Cc1nn(C)c2cc(N3CCN(C(=O)[C@@H]4CCCC[C@H]4C(=O)NC4(C#N)CC4)[C@H](C)C3)ccc12 [Compound 12] | 8 (2) % | 1260 nM | 20% | 40% | 45% | 50% | 0 (0) % | 3160 nM | 8.0 ^g | 5.9 ^g | 6.1 ^g |  |  | 1300 nM | > 10000 nM |  |  |  | 
